ChEMBL document CHEMBL3627663, “Synthesis and evaluation of 1-hydroxy/methoxy-4-methyl-2-phenyl-1H-imidazole-5-carboxylic acid derivatives as non-purine xanthine oxidase inhibitors” (Eur J Med Chem, 2015)

How the values were obtained:
[1] = molecular target: T1, Xanthine dehydrogenase/oxidase (Bos taurus, UniProt P80457); assay: Inhibition of bovine XO at 10 ug/ml using xanthine as substrate after 120 mins by spectrophotometric analysis; settings: cattle, 2 h
[2] = molecular target: T1, Xanthine dehydrogenase/oxidase; assay: Inhibition of bovine XO using xanthine as substrate after 120 mins by spectrophotometric analysis
[3] = molecular target: T1, Xanthine dehydrogenase/oxidase; assay: Ratio of Febuxostat IC50 to compound IC50 for bovine XO; settings: cattle
[4] = molecular target: T1, Xanthine dehydrogenase/oxidase; assay: Mixed-type inhibition of bovine XO using xanthine as substrate by Lineweaver-Burk plot analysis; settings: cattle

T1 sequence (P80457 whole entry): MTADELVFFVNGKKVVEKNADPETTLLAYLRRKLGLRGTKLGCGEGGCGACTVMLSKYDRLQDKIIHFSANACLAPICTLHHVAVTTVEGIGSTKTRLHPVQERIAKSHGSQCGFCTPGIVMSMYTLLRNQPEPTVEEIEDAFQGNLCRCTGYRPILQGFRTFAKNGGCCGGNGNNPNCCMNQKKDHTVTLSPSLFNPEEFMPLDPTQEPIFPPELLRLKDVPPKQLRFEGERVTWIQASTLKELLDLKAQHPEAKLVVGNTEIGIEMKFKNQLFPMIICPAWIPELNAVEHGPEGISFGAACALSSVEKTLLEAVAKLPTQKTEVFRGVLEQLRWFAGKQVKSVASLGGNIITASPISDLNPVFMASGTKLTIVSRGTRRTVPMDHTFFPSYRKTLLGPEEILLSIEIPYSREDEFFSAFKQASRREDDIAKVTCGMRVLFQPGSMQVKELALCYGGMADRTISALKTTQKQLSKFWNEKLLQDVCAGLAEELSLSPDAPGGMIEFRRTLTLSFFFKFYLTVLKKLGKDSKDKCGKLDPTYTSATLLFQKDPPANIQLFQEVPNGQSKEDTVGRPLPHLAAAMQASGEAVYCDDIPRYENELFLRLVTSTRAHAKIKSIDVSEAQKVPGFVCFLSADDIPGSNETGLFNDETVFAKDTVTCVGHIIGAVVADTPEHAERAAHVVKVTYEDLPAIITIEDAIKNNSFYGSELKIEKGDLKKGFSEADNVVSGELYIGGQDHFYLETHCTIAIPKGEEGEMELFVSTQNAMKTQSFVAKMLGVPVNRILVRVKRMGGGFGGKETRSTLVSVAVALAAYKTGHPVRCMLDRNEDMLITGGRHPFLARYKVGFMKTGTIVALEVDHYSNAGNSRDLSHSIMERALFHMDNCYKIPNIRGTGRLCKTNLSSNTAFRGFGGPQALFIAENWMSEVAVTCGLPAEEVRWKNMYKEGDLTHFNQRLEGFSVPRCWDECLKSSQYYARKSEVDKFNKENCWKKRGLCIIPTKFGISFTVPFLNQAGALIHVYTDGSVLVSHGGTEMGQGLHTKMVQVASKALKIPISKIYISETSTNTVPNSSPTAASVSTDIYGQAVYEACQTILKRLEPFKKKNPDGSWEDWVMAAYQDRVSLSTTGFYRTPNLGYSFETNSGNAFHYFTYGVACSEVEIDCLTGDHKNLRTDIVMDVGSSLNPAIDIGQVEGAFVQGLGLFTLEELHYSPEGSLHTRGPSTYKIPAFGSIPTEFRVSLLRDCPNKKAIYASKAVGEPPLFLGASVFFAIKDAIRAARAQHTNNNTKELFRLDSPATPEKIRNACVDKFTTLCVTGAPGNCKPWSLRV

Row | inhibition (INH) [1] [%] | IC50 [2] [nM] | inhibition (INH) ([2]; cattle, 2 h) | inhibition (INH) [4] | SMILES | Ratio IC50 [3]
1 | 41.19 |  |  |  | CCCCOc1ccc(-c2nc(C)c(C(=O)O)n2OC)cc1C#N | 
2 | 10.68 |  |  |  | COc1ccc(-c2nc(C)c(C(=O)O)n2OC)cc1C#N | 
3 | 32.91 |  |  |  | COn1c(-c2ccc(OC(C)C)c(C#N)c2)nc(C)c1C(=O)O | 
4 | 19 |  |  |  | CCCCCCCCOc1ccc(-c2nc(C)c(C(=O)O)n2OC)cc1C#N | 
5 | 90.14 | 550 |  |  | COc1ccc(-c2nc(C)c(C(=O)O)n2O)cc1C#N | 
6 | 86.72 | 1100 |  |  | COn1c(-c2ccc(OCc3ccc(C)cc3)c(C#N)c2)nc(C)c1C(=O)O | 
7 | 91.65 | 110 |  |  | Cc1ccc(COc2ccc(-c3nc(C)c(C(=O)O)n3O)cc2C#N)cc1 | 
8 | 59.55 | 8000 |  |  | COn1c(-c2ccc(OCCC(C)C)c(C#N)c2)nc(C)c1C(=O)O | 
9 | 31.91 |  |  |  | COn1c(-c2ccc(OCC(C)C)c(C#N)c2)nc(C)c1C(=O)O | 
10 | 91.04 | 170 |  |  | Cc1nc(-c2ccc(OC(C)C)c(C#N)c2)n(O)c1C(=O)O | 
11 | 18.34 |  |  |  | CCCOc1ccc(-c2nc(C)c(C(=O)O)n2OC)cc1C#N | 
12 | 83.13 | 1500 |  |  | CCC(C)Oc1ccc(-c2nc(C)c(C(=O)O)n2OC)cc1C#N (stereo not drawn) | 
13 | 89.93 | 110 |  |  | CCCCCCCOc1ccc(-c2nc(C)c(C(=O)O)n2O)cc1C#N | 
14 | 80.34 | 3900 |  |  | CCCCCCOc1ccc(-c2nc(C)c(C(=O)O)n2OC)cc1C#N | 
15 | 88.17 | 1200 |  |  | CCCCCCCCOc1ccc(-c2nc(C)c(C(=O)O)n2O)cc1C#N | 
16 | 89.57 | 3 |  |  | CCCCOc1ccc(-c2nc(C)c(C(=O)O)n2O)cc1C#N | 3.3
17 | 88.33 | 3 |  |  | CCC(C)Oc1ccc(-c2nc(C)c(C(=O)O)n2O)cc1C#N (stereo not drawn) | 3.3
18 | 91.25 | 30 |  |  | Cc1nc(-c2ccc(OCCC(C)C)c(C#N)c2)n(O)c1C(=O)O | 
19 | 89.77 | 130 |  |  | CCCOc1ccc(-c2nc(C)c(C(=O)O)n2O)cc1C#N | 
20 | 92.51 | 30 |  |  | CCCCCCOc1ccc(-c2nc(C)c(C(=O)O)n2O)cc1C#N | 
21 | 26.8 |  |  |  | CCCCCCCOc1ccc(-c2nc(C)c(C(=O)O)n2OC)cc1C#N | 
22 | 94.08 | 6 | Dose-dependent effect | Active | Cc1nc(-c2ccc(OCC(C)C)c(C#N)c2)n(O)c1C(=O)O | 1.7

Row | SMILES | inhibition (INH) [1] [%] | IC50 [2] [nM] | inhibition (INH) ([2]; cattle, 2 h) | inhibition (INH) [4] | Ratio IC50 [3]
23 | Cc1nc(-c2ccc(OCC(C)C)c(C#N)c2)sc1C(=O)O [FEBUXOSTAT] | 90.89 |  |  |  | 
